Measured values reported in PubChem BioAssay (NCI).
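Compound exposure: 48 hours, 5 concentrations, 96-well plates. At the TGI there is no net growth.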

Columns and labels:
Assay in all cases: NCI-60 cell line screen, 48 h
786-0 renal = test system: 786-0 renal
A498 renal = test system: A498 renal
A549 NSCLC = test system: A549 NSCLC
ACHN renal = test system: ACHN renal
CAKI-1 renal = test system: CAKI-1 renal
CCRF-CEM leukemia = test system: CCRF-CEM leukemia
COLO 205 colon = test system: COLO 205 colon
DLD-1 colon = test system: DLD-1 colon
DMS 114 small cell lung = test system: DMS 114 small cell lung
DMS 273 small cell lung = test system: DMS 273 small cell lung
EKVX NSCLC = test system: EKVX NSCLC
HCC-2998 colon = test system: HCC-2998 colon
HCT-116 colon = test system: HCT-116 colon
HL-60(TB) leukemia = test system: HL-60(TB) leukemia
HOP-62 NSCLC = test system: HOP-62 NSCLC
HOP-92 NSCLC = test system: HOP-92 NSCLC
K-562 leukemia = test system: K-562 leukemia
KM12 colon = test system: KM12 colon
KM20L2 colon = test system: KM20L2 colon
LOX IMVI melanoma = test system: LOX IMVI melanoma
LXFL 529 NSCLC = test system: LXFL 529 NSCLC
M14 melanoma = test system: M14 melanoma
M19-MEL melanoma = test system: M19-MEL melanoma
MALME-3M melanoma = test system: MALME-3M melanoma
MOLT-4 leukemia = test system: MOLT-4 leukemia
NCI-H226 lung = test system: NCI-H226 lung
NCI-H23 lung = test system: NCI-H23 lung
NCI-H460 lung = test system: NCI-H460 lung
NCI-H522 lung = test system: NCI-H522 lung
OVCAR-3 ovarian = test system: OVCAR-3 ovarian
OVCAR-4 ovarian = test system: OVCAR-4 ovarian
OVCAR-5 ovarian = test system: OVCAR-5 ovarian
OVCAR-8 ovarian = test system: OVCAR-8 ovarian
RPMI-8226 leukemia = test system: RPMI-8226 leukemia
SF-268 CNS = test system: SF-268 CNS
SF-539 CNS = test system: SF-539 CNS
SK-MEL-28 melanoma = test system: SK-MEL-28 melanoma
SK-MEL-5 melanoma = test system: SK-MEL-5 melanoma
SK-OV-3 ovarian = test system: SK-OV-3 ovarian
SN12C renal = test system: SN12C renal
SNB-19 CNS = test system: SNB-19 CNS
SNB-75 CNS = test system: SNB-75 CNS
SR leukemia = test system: SR leukemia
SW-620 colon = test system: SW-620 colon
TK-10 renal = test system: TK-10 renal
U251 CNS = test system: U251 CNS
UACC-257 melanoma = test system: UACC-257 melanoma
UACC-62 melanoma = test system: UACC-62 melanoma
UO-31 renal = test system: UO-31 renal
BT-549 breast = test system: BT-549 breast
DU-145 prostate = test system: DU-145 prostate
HCT-15 colon = test system: HCT-15 colon
HS 578T breast = test system: HS 578T breast
HT29 colon = test system: HT29 colon
IGROV1 ovarian = test system: IGROV1 ovarian
MCF7 breast = test system: MCF7 breast
MDA-MB-231 breast = test system: MDA-MB-231 breast
MDA-MB-435 = test system: MDA-MB-435
MDA-N = test system: MDA-N
NCI/ADR-RES ovarian = test system: NCI/ADR-RES ovarian
PC-3 prostate = test system: PC-3 prostate
SF-295 CNS = test system: SF-295 CNS
SK-MEL-2 melanoma = test system: SK-MEL-2 melanoma
T-47D breast = test system: T-47D breast

Question: What does the source list for `COc1ccc(/C=C(\Cl)c2ccc(OC)cc2)cc1`?
Answer: TGI (786-0 renal): > 100 µM; TGI (A498 renal): > 100 µM; TGI (A549 NSCLC): > 100 µM; TGI (ACHN renal): > 100 µM; TGI (CAKI-1 renal): > 100 µM; TGI (CCRF-CEM leukemia): > 100 µM; TGI (COLO 205 colon): > 100 µM; TGI (DLD-1 colon): > 100 µM; TGI (DMS 114 small cell lung): > 100 µM; TGI (DMS 273 small cell lung): > 100 µM; TGI (EKVX NSCLC): > 100 µM; TGI (HCC-2998 colon): > 100 µM; TGI (HCT-116 colon): > 100 µM; TGI (HL-60(TB) leukemia): > 100 µM; TGI (HOP-62 NSCLC): > 100 µM; TGI (HOP-92 NSCLC): > 100 µM; TGI (K-562 leukemia): > 100 µM; TGI (KM12 colon): > 100 µM; TGI (KM20L2 colon): > 100 µM; TGI (LOX IMVI melanoma): > 100 µM; TGI (LXFL 529 NSCLC): > 100 µM; TGI (M14 melanoma): > 100 µM; TGI (M19-MEL melanoma): > 100 µM; TGI (MALME-3M melanoma): > 100 µM; TGI (MOLT-4 leukemia): > 100 µM; TGI (NCI-H226 lung): > 100 µM; TGI (NCI-H23 lung): > 100 µM; TGI (NCI-H460 lung): > 100 µM; TGI (NCI-H522 lung): > 100 µM; TGI (OVCAR-3 ovarian): > 100 µM; TGI (OVCAR-4 ovarian): > 100 µM; TGI (OVCAR-5 ovarian): > 100 µM; TGI (OVCAR-8 ovarian): > 100 µM; TGI (RPMI-8226 leukemia): > 100 µM; TGI (SF-268 CNS): > 100 µM; TGI (SF-539 CNS): > 100 µM; TGI (SK-MEL-28 melanoma): > 100 µM; TGI (SK-MEL-5 melanoma): > 100 µM; TGI (SK-OV-3 ovarian): > 100 µM; TGI (SN12C renal): > 100 µM; TGI (SNB-19 CNS): > 100 µM; TGI (SNB-75 CNS): > 100 µM; TGI (SR leukemia): > 100 µM; TGI (SW-620 colon): > 100 µM; TGI (TK-10 renal): > 100 µM; TGI (U251 CNS): > 100 µM; TGI (UACC-257 melanoma): > 100 µM; TGI (UACC-62 melanoma): 99.1 µM; TGI (UO-31 renal): > 100 µM

Question: What does the source list for `BrC1=CN2C[n+]3cc(Br)c4ccccc4c3N=C2c2ccccc21`?
Answer: TGI (A498 renal): 70.9 µM; TGI (A549 NSCLC): > 100 µM; TGI (ACHN renal): 34.7 µM; TGI (BT-549 breast): 37.2 µM; TGI (CAKI-1 renal): 48.1 µM; TGI (CCRF-CEM leukemia): 34.4 µM; TGI (COLO 205 colon): 23.1 µM; TGI (DU-145 prostate): 33.3 µM; TGI (HCT-15 colon): > 100 µM; TGI (HL-60(TB) leukemia): 58.5 µM; TGI (HOP-62 NSCLC): 16.6 µM; TGI (HOP-92 NSCLC): 29.6 µM; TGI (HS 578T breast): 61 µM; TGI (HT29 colon): 38.6 µM; TGI (IGROV1 ovarian): 32.1 µM; TGI (K-562 leukemia): 39.5 µM; TGI (KM12 colon): 15.9 µM; TGI (LOX IMVI melanoma): 34.2 µM; TGI (M14 melanoma): 18.4 µM; TGI (MALME-3M melanoma): 7.14 µM; TGI (MCF7 breast): 21.5 µM; TGI (MDA-MB-231 breast): 34.6 µM; TGI (MDA-MB-435): 19.2 µM; TGI (MDA-N): 21.4 µM; TGI (MOLT-4 leukemia): 33.2 µM; TGI (NCI-H23 lung): 56.4 µM; TGI (NCI-H460 lung): 32.9 µM; TGI (NCI-H522 lung): 32.2 µM; TGI (NCI/ADR-RES ovarian): > 100 µM; TGI (OVCAR-3 ovarian): 8.86 µM; TGI (OVCAR-4 ovarian): 20 µM; TGI (OVCAR-5 ovarian): 48.7 µM; TGI (OVCAR-8 ovarian): 38.6 µM; TGI (PC-3 prostate): 33.9 µM; TGI (RPMI-8226 leukemia): 30.5 µM; TGI (SF-268 CNS): 22.1 µM; TGI (SF-295 CNS): 21.5 µM; TGI (SF-539 CNS): 25.7 µM; TGI (SK-MEL-2 melanoma): 22.3 µM; TGI (SK-MEL-28 melanoma): 6.7 µM; TGI (SK-MEL-5 melanoma): 12.8 µM; TGI (SK-OV-3 ovarian): 51.8 µM; TGI (SN12C renal): 50.4 µM; TGI (SNB-19 CNS): 32.4 µM; TGI (SNB-75 CNS): 10.9 µM; TGI (SR leukemia): 9.01 µM; TGI (SW-620 colon): > 100 µM; TGI (T-47D breast): 18.8 µM; TGI (TK-10 renal): 55 µM; TGI (U251 CNS): 21.9 µM; TGI (UACC-257 melanoma): 48.8 µM; TGI (UACC-62 melanoma): 20.9 µM; TGI (UO-31 renal): > 100 µM
